The subject of data set [1] is HeLa cells. In words: Confocal fluorescence microscopy. Type of data set: cell-based. The settings on record: 20 µM, 48 h. The method, then: Cells were fixed with 4% paraformaldehyde, treated in 0.25% Triton X-100 for 15 min, incubated with F-actin conjugated to Phalloidin-iFluor 488 (Abcam; UK), and mounted with DAPI staining mount (Vector Labs; Burlingame, USA). Cell images were captured by confocal microscopy at 63× magnification (Zeiss; Germany) ([51], [53]).

The next data set has as its system phospho-H2AXγ expression. Description: Phospho-H2AXγ expression in multiple cancer cell models. The settings on record: 5 µM, 4 hours. Type of data set: cell-based. The method, then:
(§1) Cell proliferation rates were measured by using the CellTitre 96 AqueousOne kit (Promega) and bromodeoxyuridine (BrdU) assay kit (Millipore) according to the manufacturer’s protocol as we have described ([51]). Cytotoxicity was evaluated by using the commercial kit (CAT# 8078, ThermoFisher). Culture media was collected and used to measure lactate dehydrogenase (LDH) levels by a colorimetric method following the manufacture’s protocol (ThermoFisher). Cell cycling was assessed by using BrdU incorporation into S-phase DNA by using the APC BrdU flow kit (BD Pharmingen; Franklin Lakes, New Jersey) according to the manufacturer’s protocol. 1 mM of BrdU was added to cells and incubated for 6 h. Cells were incubated with anti-BrdU antibody and stained with 7-AAD before processing the cells for flow cytometry ([52]). Immunoblotting assays followed the standard protocol as we have reported ([51]–[53]).

In a further data set the target is TOP2A (Homo sapiens, UniProt P11388). Description: DNA relaxation assay (supercoiled pHOT-1 plasmid). Type of data set: biochemical. On the set-up: full-length human TOP2A and TOP2B protein (TopoGEN and Inspiralis respectively); purchased TopoGEN TG1001 (human TOP2 assay kit). The method, then: The human TOP2A and TOP2B were used to perform DNA relaxation assays. […] The reaction was incubated at 37C for 2 h and stopped by adding 2 µl of 10% SDS and 1 µl of 250 mM of EDTA, followed by the addition of 50 µg/ml of proteinase K at 45 C for 1 h. The reaction was then resolved by electrophoresis on a 1% agarose gel at 80 V and stained with 0.5 µg/ml ethidium bromide for 15 min. DNA bands were visualized using a gel imager (Gel Doc™ EZ System) and quantified using the Image Studio™ Lite Quantification Software.
Sequence of TOP2A (P11388 whole entry): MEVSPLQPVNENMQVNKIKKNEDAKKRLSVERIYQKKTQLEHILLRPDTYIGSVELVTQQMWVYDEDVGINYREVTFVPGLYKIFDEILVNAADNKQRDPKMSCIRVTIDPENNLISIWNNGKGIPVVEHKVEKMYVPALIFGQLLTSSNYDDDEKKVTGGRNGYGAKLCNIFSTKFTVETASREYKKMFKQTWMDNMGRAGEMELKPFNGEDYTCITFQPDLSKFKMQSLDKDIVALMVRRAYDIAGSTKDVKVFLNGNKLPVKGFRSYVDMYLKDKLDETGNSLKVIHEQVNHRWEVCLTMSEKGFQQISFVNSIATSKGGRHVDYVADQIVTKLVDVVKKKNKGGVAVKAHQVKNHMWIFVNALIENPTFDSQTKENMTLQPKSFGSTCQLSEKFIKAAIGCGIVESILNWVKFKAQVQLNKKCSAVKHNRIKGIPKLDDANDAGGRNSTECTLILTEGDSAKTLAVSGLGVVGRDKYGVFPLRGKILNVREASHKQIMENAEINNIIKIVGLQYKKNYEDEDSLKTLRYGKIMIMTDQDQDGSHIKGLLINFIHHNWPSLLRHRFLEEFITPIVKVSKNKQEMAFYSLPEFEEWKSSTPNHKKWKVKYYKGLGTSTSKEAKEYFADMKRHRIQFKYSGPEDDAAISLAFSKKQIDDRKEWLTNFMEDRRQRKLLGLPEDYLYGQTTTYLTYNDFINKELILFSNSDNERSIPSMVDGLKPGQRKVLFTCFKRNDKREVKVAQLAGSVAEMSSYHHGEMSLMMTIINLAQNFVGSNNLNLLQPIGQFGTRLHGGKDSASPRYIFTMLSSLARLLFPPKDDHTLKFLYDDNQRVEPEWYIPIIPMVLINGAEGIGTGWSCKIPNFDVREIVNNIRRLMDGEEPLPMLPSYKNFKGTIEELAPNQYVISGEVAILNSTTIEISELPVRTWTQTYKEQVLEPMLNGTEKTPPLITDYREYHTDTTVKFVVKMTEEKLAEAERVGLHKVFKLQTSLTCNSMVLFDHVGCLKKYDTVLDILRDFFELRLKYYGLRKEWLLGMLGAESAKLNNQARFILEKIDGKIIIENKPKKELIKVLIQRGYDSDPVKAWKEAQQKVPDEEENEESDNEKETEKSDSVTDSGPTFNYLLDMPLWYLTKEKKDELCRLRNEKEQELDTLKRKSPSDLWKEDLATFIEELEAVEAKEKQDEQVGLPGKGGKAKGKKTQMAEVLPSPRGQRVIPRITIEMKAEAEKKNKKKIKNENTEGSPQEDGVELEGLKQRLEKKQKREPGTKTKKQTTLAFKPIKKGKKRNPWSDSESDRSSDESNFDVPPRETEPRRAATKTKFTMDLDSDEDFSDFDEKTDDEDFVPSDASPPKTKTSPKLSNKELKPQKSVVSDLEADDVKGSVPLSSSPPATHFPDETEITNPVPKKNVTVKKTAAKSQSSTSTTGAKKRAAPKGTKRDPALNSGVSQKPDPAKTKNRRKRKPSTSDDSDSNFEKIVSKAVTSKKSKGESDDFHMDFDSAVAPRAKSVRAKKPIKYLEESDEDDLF

A further data set has as its system K562 xenografts. Description: K562 xenografts, intra-tumor polymeric paste. Particulars: single 30 µl paste, 1% T60 or T633, 0.3% etoposide. It is filed as in vivo, nude mice (Nu/Nu). The method, then:
The polymeric paste was prepared with 50% poly-DL-lactide-coglycolide (PLGA) and 50% PEG 300 (w/w) as we have reported ([57]). […] The density of the paste was determined to be 1.2 g/ml ( ± 3%). One million K562 cells were inoculated subcutaneously in bilateral flanks of nude mice (Nu/Nu). […] Tumor volumes were measured every three days and were calculated by length × width × depth × 0.5236. Mice were euthanized when tumor volumes reached 15% of body weight or weight loss >20% occurred. The remaining mice were euthanized after the control group was euthanized. All animal procedures were under the guidelines of the Canadian Council on Animal Care and were approved by the UBC Animal Care Committee (# A19-0256).

Data set [2] deals with HeLa cells. Description: FACS cell cycle assay. It is filed as cell-based. The settings on record: 20 µM, 48 h. The method, then: as §1

pIC50: −log10 of the molar value.

For `O=C(Nc1ccc(Nc2ccccc2)cc1)c1ccc[nH]c1=S` [T60], the Cell morphology entry with HeLa cells [1] was “enlarged cell bodies and nuclei”. For the same compound, the “DNA damage (phospho-H2AXγ expression) in all cell models” value in the data set on phospho-H2AXγ expression is “not accompanied by DNA damage”. In addition, at TOP2A (Figure 3B), the “Inhibition of TOP2A activity changing supercoiled into relaxed plasmid DNA” value is reported as “inhibited”. For the same compound, the pIC50 at TOP2A (densitometry of SC bands, read-out: IC50, inhibition of TOP2A plasmid DNA relaxation) was approximately 5.33. The “Tumor growth at the end of two weeks” value with K562 xenografts is on record as “strongly inhibit tumor growth comparable to etoposide”. In addition, in the data set with HeLa cells [2], the Cell cycle distribution result is “reduced at the G1 phase, but accumulated at S and G2/M phases”.

Broadly, the pIC50 is −log10 of the IC50, conventionally taken in molar units.

For the origin of these results see article PMC7883873, “Discovery of New Catalytic Topoisomerase II Inhibitors for Anticancer Therapeutics” (Frontiers in Oncology, 2021).
